Source: ChEMBL document CHEMBL4476883, “Hydroxy formamide derivatives and their use” (2017)

Legend:
[1] = molecular target: T1, Bone morphogenetic protein 1 (Homo sapiens, UniProt P13497); assay: Inhibition of C-terminal FLAG-6x-His epitope tagged and N-terminal human RAGE signal sequence tagged human BMP1 (23 to 721 amino acids) expressed in CHO-E1A cells pre-incubated for 10 mins before promyostatin peptide substrate addition and measured after 60 mins using 0.5 nM BMP1 by FRET based assay; assay type: cell-based
T1 sequence (P13497 whole entry): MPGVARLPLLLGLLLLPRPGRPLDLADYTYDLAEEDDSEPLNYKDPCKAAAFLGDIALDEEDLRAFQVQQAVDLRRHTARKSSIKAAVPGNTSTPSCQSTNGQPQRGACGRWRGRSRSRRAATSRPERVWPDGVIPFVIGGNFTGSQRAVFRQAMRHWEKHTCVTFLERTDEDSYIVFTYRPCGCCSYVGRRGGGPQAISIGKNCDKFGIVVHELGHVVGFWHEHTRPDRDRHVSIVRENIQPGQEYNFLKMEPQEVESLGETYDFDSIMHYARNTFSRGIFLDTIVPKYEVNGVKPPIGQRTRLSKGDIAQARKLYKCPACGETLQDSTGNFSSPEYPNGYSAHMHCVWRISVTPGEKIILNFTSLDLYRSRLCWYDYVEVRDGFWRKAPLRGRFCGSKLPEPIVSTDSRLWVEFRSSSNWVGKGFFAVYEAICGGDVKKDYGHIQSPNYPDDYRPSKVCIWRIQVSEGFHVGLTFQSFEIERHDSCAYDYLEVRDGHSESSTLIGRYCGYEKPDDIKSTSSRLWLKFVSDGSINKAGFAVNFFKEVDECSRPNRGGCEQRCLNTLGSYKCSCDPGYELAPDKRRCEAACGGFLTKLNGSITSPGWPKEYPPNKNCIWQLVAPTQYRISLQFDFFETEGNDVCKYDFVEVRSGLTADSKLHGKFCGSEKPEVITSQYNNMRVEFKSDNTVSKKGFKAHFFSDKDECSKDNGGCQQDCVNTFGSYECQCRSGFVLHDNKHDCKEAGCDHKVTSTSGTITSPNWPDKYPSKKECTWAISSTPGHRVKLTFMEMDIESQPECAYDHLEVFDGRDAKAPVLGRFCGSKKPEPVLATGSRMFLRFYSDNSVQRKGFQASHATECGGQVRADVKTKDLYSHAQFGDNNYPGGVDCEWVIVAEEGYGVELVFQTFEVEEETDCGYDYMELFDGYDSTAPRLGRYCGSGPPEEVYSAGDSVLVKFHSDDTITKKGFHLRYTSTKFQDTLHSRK

Tolloid-like protein 2 = molecular target: T2, Tolloid-like protein 2 (Homo sapiens, UniProt Q9Y6L7); assay: Inhibition of C-terminal Avi-6x-His epitope tagged and N-terminal human RAGE signal sequence tagged recombinant human TLL2 (26 to 1015 amino acids) expressed in CHOE1A cells incubated for 60 mins with promyostatin peptide substrate by FRET based assay; assay type: cell-based
T2 sequence (Q9Y6L7 whole entry): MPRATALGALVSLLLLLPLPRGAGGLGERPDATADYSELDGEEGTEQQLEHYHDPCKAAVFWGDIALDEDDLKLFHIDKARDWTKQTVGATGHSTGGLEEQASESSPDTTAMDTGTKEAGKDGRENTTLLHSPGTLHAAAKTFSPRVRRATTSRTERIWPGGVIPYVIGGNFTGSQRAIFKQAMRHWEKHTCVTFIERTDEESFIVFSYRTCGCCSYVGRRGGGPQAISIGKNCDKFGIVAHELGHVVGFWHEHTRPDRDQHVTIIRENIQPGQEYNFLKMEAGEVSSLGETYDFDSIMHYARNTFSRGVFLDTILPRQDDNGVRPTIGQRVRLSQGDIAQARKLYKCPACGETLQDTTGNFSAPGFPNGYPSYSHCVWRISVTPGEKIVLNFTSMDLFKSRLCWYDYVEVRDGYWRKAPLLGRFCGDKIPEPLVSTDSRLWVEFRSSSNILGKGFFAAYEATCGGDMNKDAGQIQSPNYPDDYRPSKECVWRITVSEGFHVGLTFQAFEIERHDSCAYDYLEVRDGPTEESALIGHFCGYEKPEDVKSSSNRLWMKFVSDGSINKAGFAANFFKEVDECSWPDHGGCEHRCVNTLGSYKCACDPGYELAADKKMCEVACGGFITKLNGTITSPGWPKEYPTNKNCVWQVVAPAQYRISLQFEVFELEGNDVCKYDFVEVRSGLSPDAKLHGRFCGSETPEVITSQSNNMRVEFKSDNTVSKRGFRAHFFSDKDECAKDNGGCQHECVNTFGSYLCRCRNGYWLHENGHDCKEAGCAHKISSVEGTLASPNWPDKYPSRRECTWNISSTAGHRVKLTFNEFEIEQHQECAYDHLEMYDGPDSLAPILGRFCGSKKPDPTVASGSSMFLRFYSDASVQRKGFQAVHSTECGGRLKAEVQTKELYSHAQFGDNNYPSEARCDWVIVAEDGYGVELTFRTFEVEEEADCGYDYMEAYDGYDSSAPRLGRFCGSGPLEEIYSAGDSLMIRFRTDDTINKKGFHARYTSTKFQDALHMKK

[2] = molecular target: T1, Bone morphogenetic protein 1; assay: Inhibition of C-terminal FLAG-6x-His epitope tagged and N-terminal human RAGE signal sequence tagged human BMP1 (23 to 721 amino acids) expressed in CHO-E1A cells pre-incubated for 10 mins before promyostatin peptide substrate addition and measured after 30 mins using 50 nM BMP1 by FRET based assay; assay type: cell-based
[3] = Reduction in PICP levels in human cardiac fibroblasts incubated for 24 to 48 hrs by ELISA; assay type: functional
Tolloid-like protein 1 = Tolloid-like protein 1 (Homo sapiens, UniProt O43897, I156V/N221S/V284A); assay: Inhibition of recombinant human TLL1 I156V/N221S/V284A mutant expressed in CHOE1A cells pre-incubated for 10 mins before promyostatin peptide substrate addition and measured after 60 mins by FRET based assay; assay type: cell-based
Sequence of Tolloid-like protein 1 (O43897 148-1013 I156V/N221S/V284A limits assumed): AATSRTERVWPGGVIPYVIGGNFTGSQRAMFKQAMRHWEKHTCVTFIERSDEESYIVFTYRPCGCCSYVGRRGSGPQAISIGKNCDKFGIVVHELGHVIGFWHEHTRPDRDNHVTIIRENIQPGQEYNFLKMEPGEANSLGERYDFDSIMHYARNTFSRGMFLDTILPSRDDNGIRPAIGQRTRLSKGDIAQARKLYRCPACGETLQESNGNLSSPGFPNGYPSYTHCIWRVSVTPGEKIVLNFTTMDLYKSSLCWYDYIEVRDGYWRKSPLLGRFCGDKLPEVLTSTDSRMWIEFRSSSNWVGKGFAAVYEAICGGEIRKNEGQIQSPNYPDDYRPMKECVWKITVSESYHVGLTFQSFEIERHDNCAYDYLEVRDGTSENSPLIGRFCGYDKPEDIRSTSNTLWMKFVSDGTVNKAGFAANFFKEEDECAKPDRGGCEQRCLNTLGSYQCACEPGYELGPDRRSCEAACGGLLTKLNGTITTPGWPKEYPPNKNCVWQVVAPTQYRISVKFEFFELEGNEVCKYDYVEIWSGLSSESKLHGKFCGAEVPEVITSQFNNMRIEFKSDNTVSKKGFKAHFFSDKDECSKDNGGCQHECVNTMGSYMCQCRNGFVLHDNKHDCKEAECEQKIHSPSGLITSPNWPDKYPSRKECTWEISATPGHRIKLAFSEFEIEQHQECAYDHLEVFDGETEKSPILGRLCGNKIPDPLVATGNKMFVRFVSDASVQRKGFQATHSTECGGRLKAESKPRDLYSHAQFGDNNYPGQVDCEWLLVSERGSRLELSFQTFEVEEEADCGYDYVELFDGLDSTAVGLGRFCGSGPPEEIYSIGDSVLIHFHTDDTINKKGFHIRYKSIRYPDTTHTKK

Row | IC50 [1] | IC50 (Tolloid-like protein 2) | IC50 [2] | IC50 (Tolloid-like protein 1) | Compound | IC50 [3]
1 | < 126 nM | < 631 nM | < 251 nM | < 398 nM | CCCCC[C@@H](C(=O)NCNC(=O)c1cccc(-c2ccc(C3(C(=O)O)CC3)cc2)n1)[C@@H](CC)N(O)C=O | < 20 µM
2 | < 126 nM | < 631 nM | < 251 nM | < 398 nM | CCCCC[C@H](CN(O)C=O)C(=O)NCNC(=O)c1cccc(-c2cccc(OC)c2)c1 | < 20 µM
3 | < 126 nM | < 631 nM | < 251 nM | < 398 nM | COc1cccc(-c2cccc(C(=O)NCNC(=O)[C@H](CC3CCCC3)CN(O)C=O)c2)c1 | < 20 µM
4 | < 126 nM | < 631 nM | < 251 nM | < 398 nM | CCCCC[C@@H](C(=O)NCNC(=O)c1cccc(-c2ccc(C(=O)O)c(OCC)c2)c1)[C@@H](CC)N(O)C=O | < 20 µM
5 | < 126 nM | < 631 nM | < 251 nM | < 398 nM | CCCCC[C@H](CN(O)C=O)C(=O)NCNC(=O)c1cccc(Oc2ccc(OC)nc2)c1 | < 20 µM
6 | < 126 nM | < 631 nM | < 251 nM | < 398 nM | CCCCC[C@H](CN(O)C=O)C(=O)NCNC(=O)c1cccc(-c2ncc(C)o2)c1 | < 20 µM
7 | < 126 nM | < 631 nM | < 251 nM | < 398 nM | CCCCC[C@H](CN(O)C=O)C(=O)NCNC(=O)c1cccc(-c2cccc(OC)c2)c1F | < 20 µM
8 | < 126 nM | < 631 nM | < 251 nM | < 398 nM | CCCCC[C@H](CN(O)C=O)C(=O)NCNC(=O)c1cccc(-c2cc(OC)ccc2F)c1F | < 20 µM
9 | < 126 nM | < 631 nM | < 251 nM | < 398 nM | O=CN(O)C[C@@H](CC1CCCC1)C(=O)NCNC(=O)c1cccc(-c2ccc(C(F)(F)F)cc2)c1 | < 20 µM
10 | < 126 nM | < 631 nM | < 251 nM | < 398 nM | CCCCC[C@@H](C(=O)NCNC(=O)c1cccc(-c2cc(OCC)cc(C(=O)N[C@@H](CC(=O)O)C(=O)O)c2)c1)[C@@H](CC)N(O)C=O | < 20 µM
11 | < 126 nM | < 631 nM | < 251 nM | < 398 nM | COc1ccccc1-c1cccc(C(=O)NCNC(=O)[C@H](CC2CCCC2)CN(O)C=O)c1 | < 20 µM
12 | < 126 nM | < 631 nM | < 251 nM | < 398 nM | CCCCC[C@@H](C(=O)NCNC(=O)c1cccc(-c2ccc(OC)c(C(=O)O)c2)n1)[C@@H](CC)N(O)C=O | < 20 µM
13 | < 126 nM | < 631 nM | < 251 nM | < 398 nM | CCCCC[C@@H](C(=O)NCNC(=O)c1cccc(-c2ccc(F)c(C(=O)O)c2)n1)[C@@H](CC)N(O)C=O | < 20 µM
14 | < 126 nM | < 631 nM | < 251 nM | < 398 nM | CCCCC[C@H](CN(O)C=O)C(=O)NCNC(=O)c1cccc(-c2ccnc(OC)n2)c1 | < 20 µM
15 | < 126 nM | < 631 nM | < 251 nM | < 398 nM | CCCCC[C@@H](C(=O)NCNC(=O)c1cccc(-c2ccc(C(=O)O)cc2C)n1)[C@@H](CC)N(O)C=O | < 20 µM
16 | < 126 nM | < 631 nM | < 251 nM | < 398 nM | CCCCC[C@H](CN(O)C=O)C(=O)NCNC(=O)c1cccc(-c2cnc(C)o2)c1 | < 20 µM
17 | < 126 nM | < 631 nM | < 251 nM | < 398 nM | CCCCC[C@H](CN(O)C=O)C(=O)NCNC(=O)c1cccc(-c2cc(OCC)cc(C(=O)O)c2)n1 | < 20 µM
18 | < 126 nM | < 631 nM | < 251 nM | < 398 nM | CCCCC[C@H](CN(O)C=O)C(=O)NCNC(=O)c1cccc(-c2nnn[nH]2)c1 | < 20 µM
19 | < 126 nM | < 631 nM | < 251 nM | < 398 nM | CCCCC[C@@H](C(=O)NCNC(=O)c1cccc(-c2ccc(P(=O)(O)O)c(OCC)c2)n1)[C@@H](CC)N(O)C=O | < 20 µM
20 | < 126 nM | < 631 nM | < 251 nM | < 398 nM | CCCCC[C@H](CN(O)C=O)C(=O)NCNC(=O)c1cccc(-c2nc(C)c(C)o2)c1 | < 20 µM
21 | < 126 nM | < 631 nM | < 251 nM | < 398 nM | CCCCC[C@@H](C(=O)NCNC(=O)c1cccc(-c2cccc(C(=O)O)c2C)n1)[C@@H](CC)N(O)C=O | < 20 µM
22 | < 126 nM | < 631 nM | < 251 nM | < 398 nM | O=CN(O)C[C@@H](CC1CCCC1)C(=O)NCNC(=O)c1cccc(-c2ccccc2)c1 | < 20 µM
23 | < 126 nM | < 631 nM | < 251 nM | < 398 nM | CCCCC[C@H](CN(O)C=O)C(=O)NCNC(=O)c1cccc(-c2ccccc2)c1 | < 20 µM
24 | < 126 nM | < 631 nM | < 251 nM | < 398 nM | CCCCC[C@H](CN(O)C=O)C(=O)NCNC(=O)c1cccc(-n2cc(C)cn2)c1 | < 20 µM
25 | < 126 nM | < 631 nM | < 251 nM | < 398 nM | CCCCC[C@@H](C(=O)NCNC(=O)c1cccc(-c2cc(OCC)cc(C(=O)O)c2)c1)[C@@H](CC)N(O)C=O | < 20 µM
26 | < 126 nM | < 631 nM | < 251 nM | < 398 nM | N#Cc1cccc(-c2cccc(C(=O)NCNC(=O)[C@H](CC3CCCC3)CN(O)C=O)c2)c1 | < 20 µM
27 | < 126 nM | < 631 nM | < 251 nM | < 398 nM | CCCCC[C@@H](C(=O)NCNC(=O)c1cccc(-c2cccc(OC)c2F)c1F)[C@@H](CC)N(O)C=O | < 20 µM
28 | < 126 nM | < 631 nM | < 251 nM | < 398 nM | O=CN(O)C[C@@H](CCc1ccccc1)C(=O)NCNC(=O)c1cccc(-c2cccc(B(O)O)c2)c1 | < 20 µM
29 | < 126 nM | < 631 nM | < 251 nM | < 398 nM | O=CN(O)C[C@@H](CC1CCCC1)C(=O)NCNC(=O)c1cccc(Oc2ccccc2)c1 | < 20 µM
